Experimental data published in ChEMBL document CHEMBL1201862, “PubChem BioAssay data set” (2004).
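Dose response: 5 concentrations. Exposure: 48 h. Format: 96-well plates. Endpoint: linear interpolation; highest concentration if not reached. Here, GI50 denotes the concentration required for 50% inhibition of growth.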 Active and inactive are the calls of the source. Rule as the data show it: active = GI50 up to about 1.1 µM and inactive = higher.

Assays:
Experiment in all cases: NCI anticancer screen, dose series, 48 h
[1] = test system: SK-MEL-5
[2] = test system: HOP-62
[3] = test system: Malme-3M
[4] = test system: SF-539
[5] = test system: NCI-H522
[6] = test system: OVCAR-8
[7] = test system: SK-OV-3
[8] = test system: Hs-578T
[9] = test system: SR
[10] = test system: SF-295
[11] = test system: OVCAR-3
[12] = test system: MOLT-4
[13] = test system: UACC-62
[14] = test system: A549
[15] = test system: NCI-H23
[16] = test system: NCI-H460
[17] = test system: HCC 2998
[18] = test system: U-251
[19] = test system: CCRF-CEM
[20] = test system: MDA-N

Row | Structure (SMILES) | GI50 [1] | GI50 [2] | GI50 [3] | GI50 [4] | GI50 [5] | GI50 [6] | GI50 [7] | GI50 [8] | GI50 [9] | GI50 [10] | GI50 [11] | GI50 [12] | GI50 [13] | GI50 [14] | GI50 [15] | GI50 [16] | GI50 [17] | GI50 [18] | GI50 [19] | GI50 [20]
1 | CC(C)c1ccc2nc3ccc(C(=O)NCCN(C)C)cn3c(=O)c2c1 | 12.4 µM (inactive) | 15.3 µM (inactive) | 3.37 µM (inactive) | 14.9 µM (inactive) | 15.3 µM (inactive) | 18.8 µM (inactive) | 17.5 µM (inactive) | 15.2 µM (inactive) | 17.5 µM (inactive) | 10.9 µM (inactive) | 29.2 µM (inactive) | 15 µM (inactive) | 16.6 µM (inactive) | 17.4 µM (inactive) | 15.5 µM (inactive) | 17.6 µM (inactive) | 14.1 µM (inactive) | 19.9 µM (inactive) | 14.9 µM (inactive) | 16.4 µM (inactive)
2 | O=[N+]([O-])c1cc([As](Br)c2ccc(O)c([N+](=O)[O-])c2)ccc1O | 1.49 µM (inactive) | 1.91 µM (inactive) | 0.632 µM (active) | 1.77 µM (inactive) | 0.145 µM (active) | 1.79 µM (inactive) | 3.39 µM (inactive) | 2.41 µM (inactive) | 0.383 µM (active) | 1.8 µM (inactive) | 1.81 µM (inactive) | 0.259 µM (active) | 1.47 µM (inactive) | 2.62 µM (inactive) | 2.17 µM (inactive) | 3.12 µM (inactive) | 1.02 µM (active) | 1.82 µM (inactive) | 0.167 µM (active) | 1.53 µM (inactive)
3 | NC(=S)N/N=C\c1nccc2ccccc12 | 0.143 µM (active) | 0.321 µM (active) | 1.73 µM (inactive) | 0.155 µM (active) | 0.908 µM (active) | 0.209 µM (active) | 0.2 µM (active) | 10.7 µM (inactive) | 0.126 µM (active) | 0.187 µM (active) | 0.281 µM (active) | 0.226 µM (active) | 0.136 µM (active) | 0.413 µM (active) | 0.314 µM (active) | 0.267 µM (active) | 3.04 µM (inactive) | 0.281 µM (active) | 0.27 µM (active) | 0.429 µM (active)
4 | CCOC(=O)Cn1c(=O)c2cc(-c3ccccc3)cc3c(Cl)nc4c(OC)c(OC)cc1c4c32 | 24.7 µM (inactive) | 28.8 µM (inactive) | 0.578 µM (active) | 87.5 µM (inactive) | 14.8 µM (inactive) | 15.6 µM (inactive) | 43.8 µM (inactive) | 6.97 µM (inactive) | 1.99 µM (inactive) | 40.7 µM (inactive) | 20.9 µM (inactive) | 3.1 µM (inactive) | 14.8 µM (inactive) | 28 µM (inactive) | 15.3 µM (inactive) | 17.1 µM (inactive) | 16.7 µM (inactive) | 31.2 µM (inactive) | 5.16 µM (inactive) | 17.7 µM (inactive)
5 | COc1cc(S(=O)(=O)Nc2nc(-c3ccc(N4C(=O)C(CC(=O)O)SC4c4cccs4)cc3)cs2)ccc1Cl (stereo not drawn) | > 100 µM (inactive) | 54 µM (inactive) | 22.6 µM (inactive) | 27.9 µM (inactive) | 17.8 µM (inactive) | 39 µM (inactive) | > 100 µM (inactive) | 46 µM (inactive) | 44.9 µM (inactive) | > 100 µM (inactive) | 36.2 µM (inactive) | 29 µM (inactive) | 23.4 µM (inactive) | > 100 µM (inactive) | 22.6 µM (inactive) | > 100 µM (inactive) | 27 µM (inactive) | 42.6 µM (inactive) |  | 43.3 µM (inactive)
6 | C=C1CC[C@@H](CCC2CCC3(OC2)O[C@]2(O)CC[C@@]3(C)OC2(C)C)C(C)(C)[C@H]1C/C=C1\CCOC1=O (stereo partly drawn) | 0.0244 µM (active) | 32.1 µM (inactive) | 16.7 µM (inactive) | 5.3 µM (inactive) | 5.32 µM (inactive) | 15.3 µM (inactive) | 20.4 µM (inactive) | 20.5 µM (inactive) | 2.67 µM (inactive) |  | 15 µM (inactive) | 1.97 µM (inactive) | 27 µM (inactive) | 8.89 µM (inactive) | 0.444 µM (active) | 16.4 µM (inactive) | 10.9 µM (inactive) | 15.1 µM (inactive) | 10.4 µM (inactive) | 20 µM (inactive)
7 | O=C(O)CCCc1nc2c(n1Cc1ccccc1)C(=O)c1ccccc1C2=O |  |  | 15.7 µM (inactive) | 69.8 µM (inactive) | 29.4 µM (inactive) | 36.6 µM (inactive) | > 100 µM (inactive) | 75.7 µM (inactive) | 44.7 µM (inactive) | 25.8 µM (inactive) | 21.5 µM (inactive) | 44.9 µM (inactive) | 17.2 µM (inactive) | 30.8 µM (inactive) | 31.6 µM (inactive) | 34.8 µM (inactive) | 56.2 µM (inactive) | 54.6 µM (inactive) | 5.19 µM (inactive) | 22.5 µM (inactive)
8 | CC(=O)O[C@H]1C[C@H]2C(=S)Nc3ccccc3C(=S)N2C1 | > 100 µM (inactive) | > 100 µM (inactive) | > 100 µM (inactive) |  | > 100 µM (inactive) | > 100 µM (inactive) | > 100 µM (inactive) | > 100 µM (inactive) | > 100 µM (inactive) | > 100 µM (inactive) | > 100 µM (inactive) | > 100 µM (inactive) | > 100 µM (inactive) | > 100 µM (inactive) | > 100 µM (inactive) | > 100 µM (inactive) | > 100 µM (inactive) | > 100 µM (inactive) | > 100 µM (inactive) | > 100 µM (inactive)
9 | Cc1nc(C(N)=S)sc1C(=O)C/C(=N/N)C(=O)Nc1ccc(Cl)cc1 | 90.2 µM (inactive) | 50.8 µM (inactive) | > 100 µM (inactive) | > 100 µM (inactive) | 31 µM (inactive) | 84.1 µM (inactive) | > 100 µM (inactive) | 39.1 µM (inactive) | > 100 µM (inactive) | 84.9 µM (inactive) | 37.5 µM (inactive) | 45.8 µM (inactive) | > 100 µM (inactive) | > 100 µM (inactive) | 57.9 µM (inactive) | 55.5 µM (inactive) | > 100 µM (inactive) | 99.5 µM (inactive) |  | > 100 µM (inactive)
10 | CCOC(=O)c1nnc2c(C(=O)OCC)c3ccccc3n2c1N | 5.52 µM (inactive) | 68.9 µM (inactive) | 2.1 µM (inactive) | 5.66 µM (inactive) | 6.21 µM (inactive) | 5.16 µM (inactive) | 6.04 µM (inactive) | 7.16 µM (inactive) | 6.92 µM (inactive) | 26.9 µM (inactive) | 4.46 µM (inactive) | 4.41 µM (inactive) | 2.43 µM (inactive) | 10.5 µM (inactive) | 5.94 µM (inactive) | 8.13 µM (inactive) | 34 µM (inactive) | 5.41 µM (inactive) | 2.22 µM (inactive) | 4.36 µM (inactive)
11 | C=C1c2[nH]c3ccccc3c2C2C(CC)C1CCN2C (stereo not drawn) | 61.1 µM (inactive) | > 100 µM (inactive) | 24.3 µM (inactive) | 92 µM (inactive) | 63.2 µM (inactive) | 53.1 µM (inactive) | > 100 µM (inactive) | 40.9 µM (inactive) | 34.8 µM (inactive) | 55.8 µM (inactive) | > 100 µM (inactive) | 27.2 µM (inactive) | 48.4 µM (inactive) | > 100 µM (inactive) | > 100 µM (inactive) | 82 µM (inactive) | 18.5 µM (inactive) | 79.3 µM (inactive) | 54.6 µM (inactive) | 72.8 µM (inactive)
12 | CC(=NNC(=S)Nc1cccc(C)c1)c1cccc(C(C)=NNC(=S)Nc2cccc(C)c2)n1 | 8.89 µM (inactive) | 17 µM (inactive) | 14.9 µM (inactive) | 14.6 µM (inactive) | 21.2 µM (inactive) | 11 µM (inactive) | 44.4 µM (inactive) | > 100 µM (inactive) | 5.25 µM (inactive) | 6.19 µM (inactive) | 3.39 µM (inactive) | 15 µM (inactive) | 15.2 µM (inactive) | 18.7 µM (inactive) | 27.4 µM (inactive) | 12.8 µM (inactive) | 43.3 µM (inactive) | 21.5 µM (inactive) | 4.22 µM (inactive) | 42 µM (inactive)
13 | C/C(Cl)=N/OC(=O)Nc1ccc(F)c([N+](=O)[O-])c1 | 14 µM (inactive) | 18.2 µM (inactive) | 2.65 µM (inactive) | 33.3 µM (inactive) | 1.81 µM (inactive) | 8.91 µM (inactive) | 20.9 µM (inactive) | 0.457 µM (active) | 8.57 µM (inactive) | 31.1 µM (inactive) | 19.2 µM (inactive) | 1.78 µM (inactive) | 21.3 µM (inactive) | 26.2 µM (inactive) | 20 µM (inactive) | 4.75 µM (inactive) | 37.3 µM (inactive) | 20 µM (inactive) | 2.13 µM (inactive) | 16 µM (inactive)
14 | COc1cc(/C=C/C(=O)OCCc2ccccc2)ccc1O | 19.5 µM (inactive) | 16.3 µM (inactive) | 16.4 µM (inactive) | 18.6 µM (inactive) | 5.4 µM (inactive) | 28.5 µM (inactive) | 16.1 µM (inactive) | 25.6 µM (inactive) | 24.7 µM (inactive) | 17.3 µM (inactive) | 18.1 µM (inactive) | 14.5 µM (inactive) | 12.7 µM (inactive) | 18.4 µM (inactive) | 17.2 µM (inactive) | 18.6 µM (inactive) | 21 µM (inactive) | 16 µM (inactive) |  | 19.1 µM (inactive)
